Tests used:
Type in all cases: physicochemical
[1] = solubility in water at room temperature; conditions: for Biopharmaceutics Classification System class: classified from low water solubility; for solubility: water, 24 °C, 22-26° C.
[2] = Particle Size Distribution (Malvern MasterSizer, laser diffraction)
Protocol: The mean particle size distribution is preferably obtained by laser diffraction. During a laser diffraction measurement a laser beam passes through a dispersed particulate sample and the angular variation in intensity of the scattered light is measured. Large particles scatter light at small angles relative to the laser beam and small particles scatter light at large angles. The angular scattering intensity data is then analyzed to calculate the size of the particles that created the scattering pattern using the Mie theory of light scattering. The particle size is reported as a volume equivalent sphere diameter. The folded optical design in the Mastersizer 3000 (from Malvern Panalytical), which was in particular used for the measurements provides a particle size measurement range from 10 nm up to 3.5 mm using a single optical measurement path. The Mastersizer 3000 uses a sequential combination of measurements with red and blue light sources to measure across the entire particle size range.
In some embodiments, the PSD (Particle Size Distribution) of the pharmaceutically active agent was measured with a Malvern MasterSizer 2000 or 3000 (in water as dispersion medium, stirrer speed 1500 rpm, Mie presentation) to give the following results (table 11). […] Some of the grinded batches are reported with the full PSD profile in FIG. 5: […]

[3] = impurity profile by HPLC prior and after gamma irradiation
[4] = FIG. 5 lower illustration, micronized sample, jet mill
[5] = FIG. 5 middle illustration, manual grinded sample
[6] = FIG. 5 upper illustration, manual grinded sample
[7] = Gamma irradiated at 49.6 KGy under dry ice

With `O=C(NCc1cccc(S(F)(F)(F)(F)F)c1)[C@H]1C[C@@H]2CC[C@H]1C2` (racemic) [Compound A, (1SR,2SR,4RS)-N-(3-(pentafluoro-λ6-sulfanyl)benzyl)bicyclo[2.2.1]heptane-2-carboxamide] the “Biopharmaceutics Classification System class” value [1] was “BCS class II” and the solubility [1] was < 1000 µg/mL.

Work on `O=C(NCc1cccc(S(F)(F)(F)(F)F)c1)[C@H]1C[C@@H]2CC[C@H]1C2` [Compound B, (1S,2S,4R)-N-(3-(pentafluoro-λ6-sulfaneyl)benzyl)bicyclo[2.2.1]heptane-2-carboxamide] yielded a d10 [2, 4] of 3.4 microns, a d50 [2, 4] of 12.4 microns and a d90 [2, 4] of 26.3 microns. It also gave a d10 [2, 5] of 6.5 microns, a d50 [2, 5] of 32 microns and a d90 [2, 5] of 72 microns. It also gave a d10 [2, 6] of 4.4 microns, a d50 [2, 6] of 18 microns and a d90 [2, 6] of 44 microns. The “PSD of the active ingredient in the non-aqueous gel composition” value ([2]; in the gel versus after grinding) was “remained unchanged”, the “*Imp. 8. rel.tR = 0.95” value ([3]; Gamma irradiated at 49.6 KGy) was 3.29 Area % and the “Imp. 1. rel.tR = 0.22” value ([3]; Gamma irradiated at 49.6 KGy) was 0.11 Area %. For the same compound, the “Imp. 2. rel.tR = 0.37” value ([3]; Gamma irradiated at 49.6 KGy) was 0.11 Area %, the “Imp. 3. rel.tR = 0.48” value ([3]; Gamma irradiated at 49.6 KGy) was 0.24 Area % and the “Imp. 4. rel.tR = 0.52” value ([3]; Gamma irradiated at 49.6 KGy) was 0.12 Area %. The “Imp. 5. rel.tR = 0.54” value ([3]; Gamma irradiated at 49.6 KGy) was 0.08 Area %, the “Imp. 6. rel.tR = 0.58” value ([3]; Gamma irradiated at 49.6 KGy) was 0.14 Area % and the “Imp. 7. rel.tR = 0.71” value ([3]; Gamma irradiated at 49.6 KGy) was 0.39 Area %. For the same compound, the “Imp. 9. rel.tR = 1.27” value ([3]; Gamma irradiated at 49.6 KGy) was 0.32 Area %, the “Imp. 10. rel.tR = 1.80” value ([3]; Gamma irradiated at 49.6 KGy) was 0.06 Area % and the Sum of impurities ([3]; Gamma irradiated at 49.6 KGy) was 4.86 Area %. The “impurity Increase compared to initial” value ([3]; Gamma irradiated at 49.6 KGy) was “+1.25 Area %”, the “*Imp. 8. rel.tR = 0.95” value [3, 7] was 3.35 Area % and the “Imp. 1. rel.tR = 0.22” value [3, 7] was 0.23 Area %. The “Imp. 2. rel.tR = 0.37” value [3, 7] was 0.03 Area %, the “Imp. 3. rel.tR = 0.48” value [3, 7] was 0.12 Area % and the “Imp. 4. rel.tR = 0.52” value [3, 7] was 0.12 Area %. For the same compound, the “Imp. 5. rel.tR = 0.54” value [3, 7] was 0.05 Area %, the “Imp. 6. rel.tR = 0.58” value [3, 7] was 0.15 Area % and the “Imp. 7. rel.tR = 0.71” value [3, 7] was 0.34 Area %. The “Imp. 9. rel.tR = 1.27” value [3, 7] was 0.20 Area %, the Sum of impurities [3, 7] was 4.59 Area % and the “impurity Increase compared to initial” value [3, 7] was “+0.98 Area %”. For the same compound, the “*Imp. 8. rel.tR = 0.95” value ([3]; Initial API) was 3.48 Area %, the “Imp. 3. rel.tR = 0.48” value ([3]; Initial API) was 0.13 Area % and the “Imp. 4. rel.tR = 0.52” value ([3]; Initial API) was <0.05 Area %. The “Imp. 7. rel.tR = 0.71” value ([3]; Initial API) was <0.05 Area %, the Sum of impurities ([3]; Initial API) was 3.61 Area % and the “effect of gamma irradiation on the quality of the active ingredient” value ([3]; standard conditions, dry ice used for cooling) was “only minor effects”. For the same compound, the “Biopharmaceutics Classification System class” value [1] was “BCS class II” and the solubility [1] was < 1000 µg/mL.
